Measurements taken from ChEMBL document CHEMBL1149608, “Pyrrolidinones as orally bioavailable antagonists of the human melanocortin-4 receptor with anti-cachectic activity” (Bioorg Med Chem, 2007).
Blank lines part the entries; values can stand above or below the compound they belong to. Calls of active or inactive are those of the source. The rule behind the calls is not given here.

Columns and labels:
Melanocortin receptor 4 [1] = biological target: T1, Melanocortin receptor 4 (Homo sapiens, UniProt P32245); assay: Displacement of [125I]NDP-MSH from MC4R receptor in HEK293 cells; format: cell-based
T1 sequence (P32245 whole entry): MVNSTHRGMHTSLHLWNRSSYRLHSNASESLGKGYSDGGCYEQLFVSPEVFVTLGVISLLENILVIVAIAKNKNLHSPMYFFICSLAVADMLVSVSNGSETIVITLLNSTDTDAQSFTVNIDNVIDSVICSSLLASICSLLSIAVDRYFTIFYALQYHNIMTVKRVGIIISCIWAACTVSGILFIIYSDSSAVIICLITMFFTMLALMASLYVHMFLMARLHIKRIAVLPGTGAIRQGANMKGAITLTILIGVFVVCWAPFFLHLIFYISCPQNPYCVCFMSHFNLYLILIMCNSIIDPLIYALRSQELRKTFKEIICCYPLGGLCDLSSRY

Melanocortin receptor 4 [2] = biological target: T1, Melanocortin receptor 4; assay: Antagonist activity at human MC4 receptor in HEK293 cells assessed as inhibition of alpha-MSH stimulated cAMP production
[3] = biological target: Melanocyte-stimulating hormone receptor (Homo sapiens) (UniProt Q01726); assay: Displacement of [125I]NDP-MSH from MC1R receptor in HEK293 cells; format: cell-based
Melanocyte-stimulating hormone receptor (Homo sapiens), sequence (Q01726 whole entry, looked up): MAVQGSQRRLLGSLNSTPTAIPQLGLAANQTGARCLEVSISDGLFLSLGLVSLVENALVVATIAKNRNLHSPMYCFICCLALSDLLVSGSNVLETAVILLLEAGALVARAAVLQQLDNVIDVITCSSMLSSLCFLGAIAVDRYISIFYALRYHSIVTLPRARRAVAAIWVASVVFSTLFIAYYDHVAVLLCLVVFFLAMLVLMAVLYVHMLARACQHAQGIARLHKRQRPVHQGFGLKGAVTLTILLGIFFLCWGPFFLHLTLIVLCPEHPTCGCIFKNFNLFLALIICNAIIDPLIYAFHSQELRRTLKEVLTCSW

Melanocortin receptor 3 = Melanocortin receptor 3 (Homo sapiens, UniProt P41968); assay: Displacement of [125I]NDP-MSH from MC3R receptor in HEK293 cells; format: cell-based
Melanocortin receptor 3, sequence (P41968 whole entry): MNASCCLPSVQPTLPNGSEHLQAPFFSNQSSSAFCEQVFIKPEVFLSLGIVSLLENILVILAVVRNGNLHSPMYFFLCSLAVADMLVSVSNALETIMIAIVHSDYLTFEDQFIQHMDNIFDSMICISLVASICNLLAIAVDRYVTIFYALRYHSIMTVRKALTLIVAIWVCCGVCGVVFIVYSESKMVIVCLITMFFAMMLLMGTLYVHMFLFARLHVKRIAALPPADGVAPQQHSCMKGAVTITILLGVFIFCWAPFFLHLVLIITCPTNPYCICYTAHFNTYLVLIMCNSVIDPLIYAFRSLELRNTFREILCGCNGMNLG

Melanocortin receptor 5 = Melanocortin receptor 5 (Homo sapiens, UniProt P33032); assay: Displacement of [125I]NDP-MSH from MC5R receptor in HEK293 cells; format: cell-based
Melanocortin receptor 5, sequence (P33032 whole entry): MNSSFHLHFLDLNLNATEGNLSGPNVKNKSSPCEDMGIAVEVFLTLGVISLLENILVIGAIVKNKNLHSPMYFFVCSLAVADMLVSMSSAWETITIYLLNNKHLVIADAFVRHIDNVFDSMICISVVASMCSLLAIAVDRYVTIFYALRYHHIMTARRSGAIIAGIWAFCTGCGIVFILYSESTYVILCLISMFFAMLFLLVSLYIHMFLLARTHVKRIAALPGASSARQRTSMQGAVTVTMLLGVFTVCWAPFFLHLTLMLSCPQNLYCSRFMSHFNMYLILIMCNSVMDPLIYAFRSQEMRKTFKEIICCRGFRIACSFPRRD

Melanocortin receptor 4 [4] = biological target: Melanocortin receptor 4 (Mus musculus, UniProt P56450); assay: Binding affinity to C57BL/6J mouse MC4 receptor
Melanocortin receptor 4 (Mus musculus, UniProt P56450), sequence (P56450 whole entry): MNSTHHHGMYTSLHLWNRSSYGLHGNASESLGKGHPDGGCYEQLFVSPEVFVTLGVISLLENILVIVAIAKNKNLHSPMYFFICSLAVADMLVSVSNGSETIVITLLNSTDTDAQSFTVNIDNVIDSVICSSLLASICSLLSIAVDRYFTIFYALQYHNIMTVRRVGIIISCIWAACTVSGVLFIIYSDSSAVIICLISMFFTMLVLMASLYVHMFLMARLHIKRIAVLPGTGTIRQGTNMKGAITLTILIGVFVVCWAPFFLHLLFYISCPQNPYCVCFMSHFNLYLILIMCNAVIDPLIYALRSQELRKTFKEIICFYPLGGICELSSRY

Mus musculus [5] = assay: Increase in food intake in LLC-tumor bearing C57BL/6J mouse at 3 mg/kg, ip relative to control; format: functional, organism-based; set-up: dose 3 mg/kg
Mus musculus [6] = assay: Increase in food intake in LLC-tumor bearing C57BL/6J mouse at 9 mg/kg, ip relative to control; format: functional, organism-based; set-up: dose 9 mg/kg
Mus musculus [7] = assay: Increase in body weight in LLC-tumor bearing C57BL/6J mouse at 3 mg/kg, ip; format: functional, organism-based; set-up: dose 3 mg/kg
Mus musculus [8] = assay: Increase in body weight in LLC-tumor bearing C57BL/6J mouse at 9 mg/kg, ip; format: functional, organism-based; set-up: dose 9 mg/kg
Mus musculus [9] = assay: Increase in fat mass in LLC-tumor bearing C57BL/6J mouse at 3 mg/kg, ip; format: functional; conditions: route intraperitoneal
Mus musculus [10] = assay: Increase in fat mass in LLC-tumor bearing C57BL/6J mouse at 9 mg/kg, ip; format: functional; conditions: route intraperitoneal
Mus musculus [11] = assay: Increase in lean body mass in LLC-tumor bearing C57BL/6J mouse at 3 mg/kg, ip; format: functional; conditions: route intraperitoneal
Mus musculus [12] = assay: Increase in lean body mass in LLC-tumor bearing C57BL/6J mouse at 9 mg/kg, ip; format: functional; conditions: route intraperitoneal
[13] = biological target: Growth hormone secretagogue receptor type 1 (Homo sapiens, UniProt Q92847); assay: Agonist activity at ghrelin receptor; format: functional
Growth hormone secretagogue receptor type 1, sequence (Q92847 whole entry): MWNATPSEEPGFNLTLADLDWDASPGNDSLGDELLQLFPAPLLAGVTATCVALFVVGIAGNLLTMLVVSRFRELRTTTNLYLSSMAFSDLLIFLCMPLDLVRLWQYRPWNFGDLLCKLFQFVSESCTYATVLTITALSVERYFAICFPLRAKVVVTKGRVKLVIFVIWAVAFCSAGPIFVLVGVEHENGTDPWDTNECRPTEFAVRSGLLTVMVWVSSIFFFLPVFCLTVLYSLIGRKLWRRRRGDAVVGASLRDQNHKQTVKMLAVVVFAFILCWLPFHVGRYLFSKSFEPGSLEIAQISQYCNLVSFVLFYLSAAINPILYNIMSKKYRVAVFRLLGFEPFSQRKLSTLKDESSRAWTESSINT

Melanocortin receptor 4 [14] = biological target: Melanocortin receptor 4 (Rattus norvegicus, UniProt P70596); assay: Binding affinity to rat MC4 receptor
Melanocortin receptor 4 (Rattus norvegicus, UniProt P70596), sequence (P70596 whole entry): as the sequence (P56450 whole entry) above, with Y21H, P36S, S199T, T239A, S329P, S330G counted along it

in vivo [15] = conditions: C57BL/6J, mouse, plasma, iv, 5 mg/kg
in vivo [16] = conditions: C57BL/6J, mouse, iv, 5 mg/kg
in vivo [17] = conditions: C57BL/6J, mouse, iv, 5 mg/kg; remark: listed apart in the source
in vivo [18] = conditions: C57BL/6J, mouse, plasma, iv, 5 mg/kg; remark: listed apart in the source
in vivo [19] = conditions: C57BL/6J, mouse, brain, iv, 5 mg/kg
in vivo [20] = conditions: C57BL/6J, mouse, brain, iv, 5 mg/kg; remark: listed apart in the source
in vivo [21] = conditions: C57BL/6J, mouse, po, 10 mg/kg
in vivo [22] = conditions: C57BL/6J, mouse, po, 10 mg/kg; remark: listed apart in the source
in vivo [23] = conditions: C57BL/6J, mouse, plasma, po, 10 mg/kg
in vivo [24] = conditions: C57BL/6J, mouse, po, 10 mg/kg; remark: listed apart in the source
in vivo [25] = conditions: C57BL/6J, mouse, brain, iv, 5 mg/kg; remark: listed apart in the source
in vivo [26] = conditions: C57BL/6J, mouse, brain, iv, 5 mg/kg; remark: listed apart in the source
physchem = conditions: octanol/water
[27] = AUC (0 to 24 hrs) in brain of C57BL/6J mouse at 5 mg/kg, iv; format: ADME, organism-based; set-up: time < 24 hr, dose 5 mg/kg, route intravenous

Ki (Melanocortin receptor 4 [1]): 3.3 nM
Activity (Melanocortin receptor 4 [2]): Dose-dependent effect
SMILES: CC(C)C[C@H](N)c1cccc(C(F)(F)F)c1N1CCN(C(=O)[C@@H](Cc2ccc(Cl)cc2Cl)NC(=O)CN)CC1

Ki (Melanocortin receptor 4 [1]): 7.5 nM
Activity (Melanocortin receptor 4 [2]): Dose-dependent effect
SMILES: CC(=O)N[C@H](Cc1ccc(Cl)cc1Cl)C(=O)N1CCN(c2c(F)cccc2[C@@H](N)CC(C)C)CC1

Ki (Melanocortin receptor 4 [1]): 29 nM
Activity (Melanocortin receptor 4 [2]): Dose-dependent effect
SMILES: CC(C)C[C@@H](N)c1cccc(C(F)(F)F)c1N1CCN(C(=O)[C@@H](Cc2ccc(Cl)cc2Cl)NC(=O)CCN)CC1

Ki (Melanocortin receptor 4 [1]): 1.8 nM
Activity (Melanocortin receptor 4 [2]): Dose-dependent effect
SMILES: CC(C)C[C@H](N)c1cc(C(F)(F)F)ccc1N1CCN(C(=O)[C@@H](Cc2ccc(Cl)cc2Cl)NC(=O)CN)CC1

Ki (Melanocortin receptor 4 [1]): 7.1 nM
Activity (Melanocortin receptor 4 [2]): Dose-dependent effect
SMILES: CC(C)C[C@@H](N)c1cccc(F)c1N1CCN(C(=O)[C@@H](Cc2ccc(Cl)cc2Cl)NC(=O)CN)CC1

Ki (Melanocortin receptor 4 [1]): 2.5 nM
Activity (Melanocortin receptor 4 [2]): Dose-dependent effect
SMILES: CC(C)C[C@H](N)c1cccc(C(F)(F)F)c1N1CCN(C(=O)[C@@H](Cc2ccc(Cl)cc2Cl)NC(=O)CCN)CC1

Ki (Melanocortin receptor 4 [1]): 3.3 nM
Activity (Melanocortin receptor 4 [2]): Dose-dependent effect
SMILES: CC(C)C[C@H](N)c1cccc(F)c1N1CCN(C(=O)[C@@H](Cc2ccc(Cl)cc2Cl)NC(=O)CN)CC1

Ki (Melanocortin receptor 4 [1]): 49 nM
Activity (Melanocortin receptor 4 [2]): Dose-dependent effect
SMILES: CC(C)C[C@@H](N)c1cccc(C(F)(F)F)c1N1CCN(C(=O)[C@@H](Cc2ccc(Cl)cc2Cl)NC(=O)CN)CC1

Ki (Melanocortin receptor 4 [1]): 2.3 nM
Activity (Melanocortin receptor 4 [2]): Dose-dependent effect
SMILES: CC(C)C[C@@H](N)c1cccc(F)c1N1CCN(C(=O)[C@@H](Cc2ccc(Cl)cc2Cl)NC(=O)CCN)CC1

Ki (Melanocortin receptor 4 [1]): 6 nM
Activity (Melanocortin receptor 4 [2]): Dose-dependent effect
SMILES: CC(=O)N[C@H](Cc1ccc(Cl)cc1Cl)C(=O)N1CCN(c2c(F)cccc2[C@H](N)CC(C)C)CC1

Ki (Melanocortin receptor 4 [1]): 0.8 nM
Ki (Melanocortin receptor 3): 450 nM
Ki (Melanocortin receptor 5): 240 nM
Activity (Melanocortin receptor 4 [2]): Dose-dependent effect
SMILES: CC(C)C[C@H](N)c1cccc(F)c1N1CCN(C(=O)[C@@H](Cc2ccc(Cl)cc2Cl)NC(=O)CCN)CC1

Ki (Melanocortin receptor 4 [1]): 1 nM
Activity (Melanocortin receptor 4 [2]): Dose-dependent effect
SMILES: CC(C)C[C@H](N)c1cc(C(F)(F)F)ccc1N1CCN(C(=O)[C@@H](Cc2ccc(Cl)cc2Cl)NC(=O)CCN)CC1

Ki (Melanocortin receptor 4 [1]): 26 nM
Activity (Melanocortin receptor 4 [2]): Dose-dependent effect
SMILES: CC(=O)N[C@H](Cc1ccc(Cl)cc1Cl)C(=O)N1CCN(c2ccc(F)cc2[C@H](N)CC(C)C)CC1

Ki (Melanocortin receptor 4 [1]): 47 nM
Activity (Melanocortin receptor 4 [2]): Dose-dependent effect
SMILES: CC(=O)N[C@H](Cc1ccc(Cl)cc1Cl)C(=O)N1CCN(c2c([C@H](N)CC(C)C)cccc2C(F)(F)F)CC1

The next lines start with the compound.

SMILES: CC(C)C[C@H](N)c1cc(C(F)(F)F)ccc1N1CCN(C(=O)[C@@H](Cc2ccc(Cl)cc2)N2CCCC2=O)CC1
Ki (Melanocortin receptor 4 [1]): 11 nM
Activity [3]: 31%
Ki (Melanocortin receptor 3): 1800 nM
Ki (Melanocortin receptor 5): 990 nM
Ki (Melanocortin receptor 4 [4]): 5.5 nM
Activity (Mus musculus [5]): Active
Activity (Mus musculus [6]): Active
Activity (Mus musculus [7]): Active
Activity (Mus musculus [8]): Active
Activity (Mus musculus [9]): 10%
Activity (Mus musculus [10]): 10%
Activity (Mus musculus [11]): 20%
Activity (Mus musculus [12]): 20%
EC50 [13]: 4100 nM
Intrinsic activity [13]: 47%
Ki (Melanocortin receptor 4 [14]): 9.1 nM
clearance (in vivo [15]): 31 mL/min/kg
Vd (in vivo [16]): 5.8 L/kg
half-life (in vivo [17]): 2.2 h
AUC (in vivo [18]): 2680 ng·h/mL
concentration at 1 h (in vivo [19]): 484 ng/g
Kp at 1 h (in vivo [20]): 1.27
Cmax (in vivo [21]): 270 ng/mL
Tmax (in vivo [22]): 0.5 h
AUC (in vivo [23]): 2270 ng·h/mL
bioavailability (in vivo [24]): 42.4%
concentration at 4 h (in vivo [25]): 154 ng/g
Kp at 4 h (in vivo [26]): 0.81
logD (physchem): 3.1
IC50 (Melanocortin receptor 4 [2]): 510 nM

SMILES: CC(C)C[C@H](N)c1cc(C(F)(F)F)ccc1N1CCN(C(=O)[C@@H](Cc2ccc(Cl)cc2Cl)N2CCNCC2=O)CC1
Ki (Melanocortin receptor 4 [1]): 4.5 nM
Activity [3]: 23%
Ki (Melanocortin receptor 3): 950 nM
Ki (Melanocortin receptor 5): 360 nM
AUC(0-t) at 24 h [27]: 1260 ng/g.hr
clearance (in vivo [15]): 20 mL/min/kg
Vd (in vivo [16]): 13 L/kg
half-life (in vivo [17]): 7.7 h
AUC (in vivo [18]): 3940 ng·h/mL
concentration at 1 h (in vivo [19]): 41 ng/g
Kp at 1 h (in vivo [20]): 0.07
Cmax (in vivo [21]): 214 ng/mL
Tmax (in vivo [22]): 0.5 h
AUC (in vivo [23]): 1530 ng·h/mL
bioavailability (in vivo [24]): 19.4%
concentration at 4 h (in vivo [25]): 46 ng/g
Kp at 4 h (in vivo [26]): 0.24
logD (physchem): 2.8
IC50 (Melanocortin receptor 4 [2]): 210 nM

SMILES: CC(C)C[C@H](N)c1cccc(F)c1N1CCN(C(=O)[C@@H](Cc2ccc(Cl)cc2Cl)N2CCCC2=O)CC1
Activity (Melanocortin receptor 4 [2]): Dose-dependent effect

SMILES: CC(C)C[C@H](N)c1ccccc1N1CCN(C(=O)[C@@H](Cc2ccc(Cl)cc2)N2CCCC2=O)CC1
Ki (Melanocortin receptor 4 [1]): 38 nM
Activity (Melanocortin receptor 4 [2]): Dose-dependent effect

SMILES: CC(C)C[C@H](N)c1cc(C(F)(F)F)ccc1N1CCN(C(=O)[C@@H](Cc2ccc(Cl)cc2Cl)N2CCCC2=O)CC1
Activity [3]: 21%

SMILES: CC(C)C[C@H](N)c1cc(C(F)(F)F)ccc1N1CCN(C(=O)[C@H](N)Cc2ccc(Cl)cc2Cl)CC1
Ki (Melanocortin receptor 4 [1]): 39 nM
Activity (Melanocortin receptor 4 [2]): Dose-dependent effect

SMILES: CC(C)C[C@@H](N)c1cc(C(F)(F)F)ccc1N1CCN(C(=O)[C@@H](Cc2ccc(Cl)cc2Cl)NC(=O)CCN)CC1
Ki (Melanocortin receptor 4 [1]): 10 nM
Activity (Melanocortin receptor 4 [2]): Dose-dependent effect

SMILES: CC(=O)N[C@H](Cc1ccc(Cl)cc1Cl)C(=O)N1CCN(c2ccc(C(F)(F)F)cc2[C@@H](N)CC(C)C)CC1
Ki (Melanocortin receptor 4 [1]): 1.8 nM
Activity (Melanocortin receptor 4 [2]): Dose-dependent effect

SMILES: CC(C)C[C@H](N)c1cc(C(F)(F)F)ccc1N1CCN(C(=O)[C@@H](Cc2ccc(Cl)cc2Cl)NC(=O)C2CCNCC2)CC1
Ki (Melanocortin receptor 4 [1]): 0.8 nM
Activity (Melanocortin receptor 4 [2]): Dose-dependent effect

SMILES: CC(C)C[C@H](N)c1cc(C(F)(F)F)ccc1N1CCN(C(=O)[C@H](Cc2ccc(Cl)cc2)N2CCCC2=O)CC1
Ki (Melanocortin receptor 4 [1]): 8.8 nM
Activity (Melanocortin receptor 4 [2]): Dose-dependent effect
